Reference: patent US8658188B2, “Radio-opaque bioactive glass materials” (Universitat Zurich, priority 2009, dated 2014)

Test: Radiopacity assessment against an aluminum step wedge
Type: physicochemical
Settings: paste in 0.9 wt % NaCl saline, 60% weight to volume, 1 mm thick, X-ray 65 kV, n=3
Text: According to Waltimo et al., 2009, J Dent Res, 88, 235-8, the amount of bioactive particles per volume plays an important role in the closed environment of a root canal. To achieve a denser packing of the naturally relatively light nanomaterial (low-density powder with snow-like behaviour), uniaxial pressure of 2.6 MPa was applied for 30 seconds. […] The thus improved filler was compared to classical (flame derived) bioactive particles (no bismuth), to mechanical mixtures of bioactive particles and barium sulphate (50/wt %) and bismuth oxide (80/20 wt %; 50/50 wt %). Calcium hydroxide with or without additional barium sulphate was used as commercially available control material. Bovine dentine slices with a thickness of 1 mm served as control for the clear distinction between material and the surrounding tissue in clinical situations. Prior to use, the corresponding powder was homogeneously mixed with unbuffered physiological saline (0.9 wt % NaCl) to obtain a final weight to volume ratio of 60% (plastic limit, i.e. the maximum amount of powder per liquid to yield a paste-like suspension). A radiograph was taken after preparing the paste and placing it in a polycarbonate mould (10 mm diameter, 1 mm thick). Specimens were placed on a radio-graphic film (Digora, Finland) together with an aluminum step-wedge with a variable thickness from 0.5 mm to 6 mm (0.5 mm and 1 mm increments). […]

[Ca+2].[OH-].[OH-] [calcium hydroxide, Calcium hydroxide]
aluminum equivalent (radiopacity): 0.6 mm
